A short description of data set [1]: Plasma stability, murine plasma. It counts as in vitro ADME. As to conditions: 5 h incubation.
Data set [2] in a line: Plasma stability, human plasma. It counts as in vitro ADME. As to conditions: 5 h incubation.
The next data set relates to C. albicans CaCi-8. In words: Secondary assay 1: CaCi-8 with 8 µg/mL fluconazole (Alamar Blue growth). As to conditions: Candida albicans, CACI8, 48 h, read-out: CaCi-8 IC50. It counts as cell-based, Candida albicans. How it is done: All of the compounds prepared above were evaluated for their ability to chemosensitize the C. albicans test strains CaCi-2 and CaCi-8 towards fluconazole. […] The DMSO/fluconazole combination served as an internal control. […]
(1/OD measured) × (desired final volume of inoculum) × 0.3 = volume of fungal culture (µL) to add to desired volume of growth medium. When added to media in wells, this yields a calculated starting OD of the fungal inoculum of 0.00015. […]
3) Use a Thermo Combi nL to dispense 20 µL/well of assay media into all wells. […]
EnVision (Perkin Elmer) plate reader setup: Ex 544 nm, Em 590 nm, bandwidth 12 nm, top read.
Secondary assay 1: CaCi-8 with 8 µg/mL fluconazole […]
35808016); geldanamycin (AG Scientific Catalog no. […]
PBS w/o calcium and magnesium (Cellgro Catalog no. 21-040-CV)
(§1) Synthetic defined growth medium
(§2) RPMI 1640 medium, (powder without sodium bicarbonate; Invitrogen Catalog no. […]
no. 028K0760); glucose 40% (w/v) in water (Sigma Catalog no. G-5400); MOPS buffer […]
1) Prepare 1× RPMI medium by dissolving 10.4 g powdered medium in 800 mL […]
(§3) 2) Add 34.52 g MOPS. While stirring, adjust pH to 7.0 with 10 N NaOH.
(§4) 3) Add 10 mL uridine solution, 50 mL glucose solution, adjust final volume to 1000 […]
Test strain: C. albicans CaCi-8
1) Inoculate 500 µL of strain from cryopreserved stock into a 250 mL shaker flask containing 30 mL growth medium. Shake at 30 °C overnight (16 hours).
2) Read OD 600 of 1 mL of fungal culture in a cuvette using a standard optical density reader (Eppendorf BioPhotometer Plus), with growth medium as a […]
3) Dilute to a desired volume of fungal inoculum according to following formula: […]
1) Add fluconazole stock solution to fungal inoculum to achieve 8 µg/mL.
2) Add Pen/Strep to media to 1% concentration.
4) Dispense geldanamycin in positive control wells using Thermo Combi nL for a final concentration of 3 µM.
5) Then, pin 100 nL of test compound from compound plates into assay plates using a CyBi-Well pin tool.
6) Dispense 20 µL/well of culture into the assay media in all wells.
7) Incubate the plates in a humidified (90% humidity) Liconic incubator at 37 °C without agitation for 48 hours.
8) Dilute Alamar Blue 1:40 in Ca/Mg-free PBS.
9) To all plates, add 5 µL/well of the diluted Alamar Blue to plates to a final dilution […]
10) Incubate the plates for 2 hours. […]

The test system of data set [3] is Hsp90-dependent signaling pathway. Put plainly: Yeast-reporter assay, Hsp90-dependent signaling pathway. It counts as cell-based. To be noted: Saccharomyces cerevisiae.
The test system of the next data set is C. albicans CaCi-2. In words: Primary screen and dose-response retest: CaCi-2 with 8 µg/mL fluconazole (Alamar Blue growth). As to conditions: Candida albicans, CACI2; 37 °C, 48 hours, with test compound and 8 µg/mL (26 µM) fluconazole; average of at least three independent experiments in duplicate; inactive = negligible activity at concentrations below 26 µM. It counts as cell-based, Candida albicans. The protocol:
All of the compounds prepared above were evaluated for their ability to chemosensitize the C. albicans test strains CaCi-2 and CaCi-8 towards fluconazole. […] The DMSO/fluconazole combination served as an internal control.
Protocols for cellular assays
Primary screen and dose-response retest: CaCi-2 with 8 µg/mL fluconazole […]
Clear, flat-bottom, black, 384-well plates (Corning Catalog no. 3712BC; Lot no. […]
DMSO; Fluconazole (Sequoia Research Products Ltd) 2 mg/mL stock solution in PBS; […]
(AG Scientific Catalog no. DAL 1100; Lot no.151016SA); PBS without calcium and magnesium (Cellgro Catalog no. 21-040-CV)
as §1, §2
no. 028KO760); Glucose 40% (w/v) in water (Sigma Catalog no. G-5400); MOPS buffer […]
1) Prepare 1× RPMI medium by dissolving 10.4 grams powdered medium in 800 […]
as §3, §4
Test Strain: C. albicans CaCi-2
1) Inoculate 500 µL of strain from cryopreserved stock into a 250 mL shaker flask containing 30 mL growth medium. Shake at 30 °C overnight.
2) Read OD 600 of 1 mL fungal culture in a cuvette using a standard optical density reader (Eppendorf BioPhotometer Plus), with growth medium as a background […]
3) Dilute to desired volume of fungal inoculums according to the following formula:
(1/OD measured) × (desired final volume of inoculum) × 0.3 = volume of fungal culture (µL) to add to desired volume of growth medium. When added to media in wells, this yields a calculated starting OD of the fungal inoculum of 0.00015.
1) Add fluconazole stock solution to fungal inoculum to achieve a final concentration […]
2) Add Pen/Strep at 0.1 mL per 10 mL media (1% v/v).
3) Use a Thermo Combi nL to dispense 20 µL/well of assay media into all wells.
4) Pin 25 nL test compound from compound plates into assay plates using CyBi- […]
5) Dispense 20 µL/well of culture into the assay media in all wells.
6) Incubate plates in a humidified (90% humidity) Liconic incubator at 37 °C without […]
7) Dilute Alamar Blue Reagent 1:40 in Ca/Mg-free PBS.
8) To all plates, add 5 µL/well of the diluted Alamar to a final dilution factor of 1:200.
9) Incubate the plates for an additional 2 hours.
10) Read the relative fluorescence intensity (RFU) of wells on a standard plate reader as a measure of relative fungal growth. EnVision (Perkin Elmer) plate reader setup: Ex 544 nm, Em 590 nm, bandwidth 12 nm, top read. […]

A value given as a limit tells only on which side of the number the result lay.

For the compound `COC(=O)Cn1nc(-c2cccc(OC)c2)c2ccccc21` [Compound 36], the “remaining after incubation in plasma” value in data set [1] and in data set [2] was less than 10% in each case. The results for the IC50 (in the data set with C. albicans CaCi-8; in data set [3]; in the data set with C. albicans CaCi-2) were 1500 ± 600 nM, greater than 26000 nM and 700 ± 300 nM, respectively.

(Values after PMC3740683, “ML212: A small-molecule probe for investigating fluconazole resistance mechanisms in Candida albicans” (Beilstein Journal of Organic Chemistry, 2013).)
